Experimental data reported in patent publication US9127016B2, “Small molecule inhibitors of Dusp6 and uses therefor” (University of Pittsburgh—Of the Commonwealth System of …, priority 2009, dated 2015).
pIC50: −log10 of the molar value.

Experiments:
[1] = tested on: FGF signaling (d2EGFP reporter); experiment: BCI analog SAR: d2EGFP intensity in transgenic zebrafish embryos by densitometry; assay type: in vivo; conditions: 20 μM, 24 hpf embryos, 6 h; for Activity (BCI = 100): d2EGFP intensity in the dorsal region
Procedure: Transgenic zebrafish embryos (24 hpf) were treated with 20 μM solution of BCI analogs in 0.5% aq DMSO and fluorescence photomicrographs were taken after 6 h. The effectiveness of BCI analogs was evaluated by densitometry (ImageJ) of d2EGFP intensity in the dorsal region.

[2] = target: T1, human Dusp1 (Homo sapiens, UniProt P28562); experiment: Chemical complementation assay in HeLa cells, pERK restoration, Dusp1-Myc; assay type: cell-based; conditions: TPA stimulated
T1 construct: expressed in transfected cells; host or cells: HeLa cells, pcDNA3.1, FuGene 6
T1 sequence (P28562 1-367): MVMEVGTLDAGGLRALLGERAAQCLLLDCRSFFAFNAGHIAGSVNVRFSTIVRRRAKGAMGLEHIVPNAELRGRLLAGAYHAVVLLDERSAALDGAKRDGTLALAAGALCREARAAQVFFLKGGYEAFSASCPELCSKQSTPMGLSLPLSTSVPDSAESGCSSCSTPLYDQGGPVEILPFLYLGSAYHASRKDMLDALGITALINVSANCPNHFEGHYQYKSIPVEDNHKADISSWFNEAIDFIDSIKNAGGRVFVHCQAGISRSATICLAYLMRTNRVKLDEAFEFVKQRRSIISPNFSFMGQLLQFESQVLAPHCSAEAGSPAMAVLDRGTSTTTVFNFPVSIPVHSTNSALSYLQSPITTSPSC
Procedure: These experiments were carried out essentially as described26. HeLa cells were obtained from ATCC (Manassas, Va.) and maintained in a humidified atmosphere of 5% CO2 at 37° C., Dulbecco's […] (DMEM) supplemented with 10% fetal bovine serum (FBS, HyClone, Logan, Utah), and 1% penicillin-streptomycin (Life Technologies, Inc., Rockville, Md.). c-Myc-Dusp6 and c-Myc-Dusp1 (also known as CL100) (kindly provided by Dr. Stephen Keyse, University of Dundee) were subcloned into pcDNA3.1 for ectopic expression in mammalian cells50. […] Plates were analyzed by three-channel multiparametric analysis for p-ERK and c-Myc-DUSP intensities in an area defined by nuclear staining using the Compartmental Analysis Bioapplication on an ArrayScan II high-content reader (Cellomics, Pittsburgh, Pa.). Restoration of ERK phosphorylation by BCI in Dusp6 overexpressing cells was quantified by Kolmogorov-Smirnov (KS) statistics as described previously using DUSP-transfected and vehicle treated control wells26. One thousand individual cells were gated for Dusp-Myc expression based on c-Myc immunostaining and analyzed for ERK phosphorylation. […] To quantify restoration of Erk phosphorylation in the Dusp expressing cells after compound treatment, KS values for each condition were normalized to the average KS value from four wells transfected with Dusp1 or Dusp6 and treated with vehicle. […]

[3] = target: T2, recombinant His-tagged Dusp6 (Homo sapiens, UniProt Q16828); experiment: In vitro pERK2 dephosphorylation assay (Western blot); assay type: biochemical; conditions: 100 μM
T2 construct: His
T2 sequence (Q16828 1-381): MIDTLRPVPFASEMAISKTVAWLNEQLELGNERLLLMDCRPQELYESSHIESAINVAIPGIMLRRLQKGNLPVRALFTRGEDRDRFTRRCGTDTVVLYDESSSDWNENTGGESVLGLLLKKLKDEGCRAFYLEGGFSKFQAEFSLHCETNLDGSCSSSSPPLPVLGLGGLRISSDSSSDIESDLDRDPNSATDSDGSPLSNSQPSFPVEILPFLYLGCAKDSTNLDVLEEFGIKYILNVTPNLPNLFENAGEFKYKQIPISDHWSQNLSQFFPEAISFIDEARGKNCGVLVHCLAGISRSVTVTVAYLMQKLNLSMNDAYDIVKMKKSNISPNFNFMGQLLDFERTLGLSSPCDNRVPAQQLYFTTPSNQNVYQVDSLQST
Procedure: ERK dephosphorylation assays were performed as described previously with several modifications (Lazo, J. S. et al. J Pharmacol Exp Ther 322, 940-7 (2007)). Briefly, recombinant His-tagged Dusp6 (1.5 ng) was incubated for 20 minutes at 25° C. in the presence of 100 μM BCI, 100 μM ICD or 1 mM sodium orthovanadate. Tyrosine and threonine phosphorylated ERK2 (New England Biolabs; 10 ng) was added and reaction mixture (30 mM Tris-HCl, pH 7.0, 75 mM NaCl, 0.67 mM EDTA, 1 mM DTT and 0.033% bovine serum albumin) was incubated at 25° C. for a further 60 min. ERK desphosphorylation was determined by Western blotting using 10% Tris-glycine gels and a monoclonal phospho-p44/42 MAPK antibody (Cell Signaling) at 1:1000 dilution. Total ERK was measured as a loading control using an anti-ERK antibody (Cell Signaling).

Row | SMILES | Activity (BCI = 100) ([1]; listed as 3 (BCI)) | pIC50 ([2]; 15 min compound, read-out: IC50, Dusp1 inhibition (pERK restoration)) | suppression of Dusp6-mediated pERK2 dephosphorylation [3] | in vivo activity relative to BCI, in words [1] | Activity (BCI = 100) [1] | block of Dusp1 activity in chemical complementation assay [2]
1 | O=C1/C(=C/c2ccccc2)C(NC2CCCCC2)c2ccccc21 (stereo not shown) [Compound 3, (E)-2-benzylidene-3-(cyclohexylamino)-2,3-dihydro-1H-inden-1-one] | 100 | 4.95 | specifically suppressed Dusp6 activity |  |  | 
2 | O=C1CC(NC2CCCCC2)c2ccccc21 (stereo not shown) [Compound 17, 3-(Cyclohexylamino)-2,3-dihydro-1H-inden-1-one] |  |  | did not | inactive | 0 | did not block
